Data taken from patent publication US11167012B2, “Peptide inhibition of CCR3-mediated diseases or conditions” (The Board of Trustees of the University of Illinois, priority 2015, dated 2021).
Where “and” joins values, the source holds several entries; their conditions need not be identical. Equal values may be shown once. Entries after “also recorded” stand apart in the source; their conditions may differ. Where a SMILES comes first, the peptide text is derived from it. The star is where a group is joined. X1 = NC(=O)CCOCCOCCOCCOCCOCCOCCOCCOCCOCCOCCOCCOCCOCCOCCOCCOCCOCCOCCOCCOCCOCCOCCOCCOCCOCCOCCOCCOCCN*

Experiments:
[1] = test system: eosinophil recruitment into the esophageal epithelium; test: Mouse model of EoE, oxazalone-challenged L2-IL5 transgenic mice; assay type: in vivo; settings: i.v., 24 hours after last OXA challenge
Description: Skin sensitized L2-IL5 transgenic mice received topical esophageal oxazalone (OXA) challenges by gavage (i.e.) on days 5, 8 and 12 (FIG. 5A). R3-2-1 peptide nanoparticles, control peptide (R3-2-3) or CCR3 inhibitor UCB35625 (UCB) were given immediately before on days 5, 8, 10 and 12 (FIG. 5A). Esophageal eosinophilia was assessed 24 hours after the last OXA challenge and treatment (day 13). […] Error bars represent SEM.
Mice were treated i.v. with R3-2-1 peptide, scrambled R3-2-3 control peptide ([…]-PEG27-NH2; SEQ ID NO:24), or the allosteric non-selective CCR3 inhibitor, UCB35625. Eosinophil recruitment into the esophageal epithelium was assessed 24 hours after the last OXA challenge by counting eosinophils in 9 high power fields (hpf) covering the total esophagus or 3 hpf covering the distal esophagus.

[2] = test system: eosinophil recruitment into the lung airspaces; test: Triple antigen (DRA) allergic mouse asthma model; assay type: in vivo
Description: Treatment of mice with CCR3 R3-2-1 peptide nanoparticles, scrambled R3-2-3 peptide nanoparticles or vehicle controls was administered i.v. by retro-orbital injection starting on day 11, one day before intranasal DRA allergen challenges on days 12-14 to assess its effect on inhibiting the recruitment of eosinophils into the lung airspaces and airways. Blood, bronchoalveolar lavage (BAL) fluid and lung tissue were harvested on day 15.
In the triple antigen driven allergic mouse model, mice are sensitized and airway-challenged with a combination of aeroallergens including Dust mite, Ragweed and Aspergillus sp. (DRA; Goplen, et al. (2009) J. Allergy Clin. Immunol. 123:925-932). This model recapitulates many of the pathologic features of human asthma, including eosinophil recruitment into the lung and airspaces, eosinophil degranulation, increased expression of Th2 cytokines, airway hyperreactivity (AHR), and airway remodeling (goblet cell metaplasia and mucus overproduction), and airway smooth muscle hyperplasia and subepithelial fibrosis. Using this model, the effectiveness of R3-2-1 in blocking allergen-induced eosinophil recruitment into the airways and development of airway pathologies in mice was evaluated. It was determined whether systemic (i.v.) administration of R3-2-1 nanoparticles has the capacity to inhibit eotaxin-mediated eosinophil recruitment into the airways. Mice subjected to the triple antigen (DRA) protocol were treated with R3-2-1, scrambled peptide (R3-2-3) and vehicle controls via i.v. administration following antigen sensitization, 24 hours prior to the first allergen challenge on Day 11 of the protocol (FIG. 7), and for i.v. routes, repeated before each subsequent allergen challenge.

## CC[C@H](C)[C@H](NC(=O)[C@H](Cc1c[nH]c2ccccc12)NC(=O)[C@H](Cc1ccccc1)NC(=O)[C@@H]1CCCN1C(=O)[C@H](CC(C)C)NC(=O)[C@@H](NC(=O)[C@@H](NC(=O)[C@H](CC(C)C)NC(=O)[C@H](Cc1ccccc1)NC(=O)[C@H](CC(C)C)NC(=O)[C@@H](N)CC(C)C)C(C)C)[C@@H](C)O)C(=O)N[C@@H](Cc1c[nH]cn1)C(=O)N[C@@H](Cc1ccc(O)cc1)C(=O)N[C@H](C(=O)N[C@@H](CCCNC(=N)N)C(=O)NCC(=O)N[C@@H](Cc1c[nH]cn1)C(=O)N[C@@H](CC(N)=O)C(=O)N[C@@H](Cc1c[nH]c2ccccc12)C(=O)N[C@H](C(=O)N[C@@H](Cc1ccccc1)C(=O)NCC(=O)N[C@@H](Cc1c[nH]cn1)C(=O)N[C@@H](CC(=O)O)C(=O)N[C@@H](CC(=O)O)C(=O)N[C@@H](CC(=O)O)C(=O)NCCOCCOCCOCCOCCOCCOCCOCCOCCOCCOCCOCCOCCOCCOCCOCCOCCOCCOCCOCCOCCOCCOCCOCCOCCOCCOCCOCCOCCC(N)=O)C(C)C)C(C)C [Peptide R3-2-1] (H-LLFLVTLPFWIHYVRGHNWVFGHDDD-X1; N-terminus assumed)
[1]
  eosinophil recruitment into distal and total esophageal epithelium: significantly blocked eosinophil recruitment; also recorded: significantly reduced eosinophil recruitment
[2]; 3 mg/kg i.v.
  % Inhibition of eosinophil recruitment (BAL fluid): 19.54 ± 14.81%
[2]; 6 mg/kg i.v.
  % Inhibition of eosinophil recruitment (BAL fluid): 44.24 ± 9.33%
[2]; 9 mg/kg i.v.
  % Inhibition of eosinophil recruitment (BAL fluid): 53.03 ± 10.82%
[2]; 12 mg/kg i.v., compared to vehicle and R3-2-3 controls
  % Inhibition of eosinophil recruitment (BAL fluid): 69.3% and 69.33 ± 4.20%
[2]; i.v.
  IC50 for inhibition of total number of eosinophils recruited into the lung airspaces: 8.16 mg/kg
[2]; i.v., BAL fluid
  total number of eosinophils recruited into the lung airspaces: significantly inhibits
